Test system: NAD(P) synthesis from niacinamide in HepG2 cells
Assay: Determination of NAD(P) synthesis from [14C]niacinamide in HepG2 cells
Format: cell-based, human
Conditions: for inhibition at 10 µM / activity at 10 µM: Homo sapiens; for inhibition at 10 µM: read-out: Cellular NAD synthesis inhibition [%]; for activity at 10 µM / NAD(P) pmol/10^6 cells / NAD(P) pmol/mg protein: Table 3a, compound 10^-5 M; for activity at 10 µM: read-out: NAD(P) % of Control; for NAD(P) pmol/10^6 cells: 17 hrs pre-incubation, control 302.1; for NAD(P) pmol/mg protein: control 186.4
Description: The effect of the compounds on the synthesis of NAD(P) starting from niacinamide was investigated using for example the tumor cell line HepG2 according to the technique described in the experimental part below.
The inhibition of the NAD(P) synthesis from niacinamide by these compounds was investigated in HepG2 cells as described in the section “Material and Methods”. The compounds of Table 3 a were used at a concentration of 10^−5 M. The compounds of Table 3 b were used at concentrations of at least 10^−5 M, except for Doxorubicin where the concentration was 0.3×10^−5 M. As a control, vehicle treated or untreated cells were used.
In these experiments, a pre-incubation period of 17 hrs with the compounds was used, but it turned out that the pre-incubations period could be shortened, for example to 2 hrs, or skipped completely without affecting the inhibition profile. […] Similar results were obtained with the other specific compounds.
For the detection of specific inhibitors of niacinamide mononucleotide formation the following screening assay is especially useful which comprises the following steps: incubating cultured cells selected from HepG2 cells, U-87 MG cells, MCF-7 M1 cells, Caki-1 cells, HL-60 cells, PC3 cells, U-373 MG cells, A549 cells and KG-1a cells in the presence of [^14C]niacinamide and a compound to be tested for its activity to inhibit the cellular formation of niacinamide mononucleotide; effecting lysis of the cells; isolating and separating the [^14C]-labeled compounds and measuring the amount of formed labeled niacinamide mononucleotide, NAD and NADP. More concretely, cultured cells are seeded in a defined density in culture dishes, followed by incubation in the presence of a test compound and by the addition of [^14C]niacinamide for about 0.1 to 6 hrs. The cells are then lysed with perchloric acid and the resulting extract is neutralized. Finally, the [^14C]-labeled compounds are separated by thin-layer chromatography on cellulose matrices followed by UV detection and autoradiography. Non-radioactive niacinamide derivatives are used as standards. This assay allows simple and effective screening and selection of the compounds according to the invention.
Determination of NAD(P) Synthesis from [^14C]Niacinamide
The cells were detached from 75 cm^2 flasks by removing the growth medium and adding 3 ml trypsin/EDTA solution to each flask. After about 5 minutes incubation at 37° C., when the cells were detached from the surface of the dishes, trypsinization was stopped by adding 3 ml Richter's IMEM-ZO medium containing 10% FCS. The cells were suspended by repeated pipetting. For predilution, an aliquot of 20 μl was added to 10 ml Casyton isotonic solution (No. 043-90037P, Schärfe System, Reutlingen, Germany) using a Sysmex Auto Dilutor Type AD-260 (Toa, Medical Electronics Co. Ltd., Kobe, Japan). The cell number was determined by electronic cell volume measurements and counting with a CASY 1 Cell Counter+Analyzer System, Model TTC (Schärfe System, Reutlingen, Germany) equipped with a 60 μm capillary. Following dilution in IMEM-ZO containing 10% FCS, the cells were finally seeded at a density of 4×10^6/10 ml per sample in Ø 10 cm tissue culture dishes (Greiner, Frickenhausen, Germany) and incubated at 37° C. in a humidified atmosphere of 5% CO2 in air.
After one day, when the cells were adherent to the dishes, the cultures were replenished with IMEM-ZO containing 5% FCS plus the test compound or the vehicle. […] The cells were then incubated at 37° C. for 17 hours in a humidified atmosphere of 5% CO2 in air. This preincubation period is not necessary to achieve a distinct inhibitory action of the compounds and can be shortened for example to 2 or 0 hours. After this period of time, the medium was again discarded and 4 ml HEPES-buffered IMEM-ZO containing the test compound or the vehicle and 0.5 μCi/ml [^14C]niacinamide were added to each culture for an additional 5 hours at 37° C. and 100% humidity. […]

With `Cn1c(CCNC(=O)/C=C/c2cccnc2)ccc1CN1CCN(C(c2ccccc2)c2ccccc2)CC1` [Compound K22350, N-{2-[5-(4-benzhydryl-piperazine-1-yl-methyl)-1-methyl-1H-pyrrole-2-yl]-ethyl}-3-pyridine-3-yl-acrylamide] the inhibition at 10 µM was 99%, the activity at 10 µM was 0.9% and the “NAD(P) pmol/10^6 cells” value was 2.7 pmol/10^6 cells. For the same molecule, the “NAD(P) pmol/mg protein” value was 1.7 pmol/mg protein.

Work on `O=C(NCCCCC1CCN(S(=O)(=O)c2ccc3ccccc3c2)CC1)Nc1cccnc1` [Compound K22365, 1-{4-[1-(naphthalene-2-sulfonyl)-piperidine-4-yl)-butyl}-3-pyridine-3-yl-urea] yielded an inhibition at 10 µM of 92%.

For `O=C(NCCCCC1CCN(C(=O)N2c3ccccc3CCc3ccccc32)CC1)Nc1cccnc1` [Compound K22387, 1-{4-[1-(1,11-dihydro-dibenzene[b,f]azepine-5-carbonyl)-piperidine-4-yl]-butyl}-3-pyridine-3-yl-urea], the inhibition at 10 µM was 99%, the activity at 10 µM was 0.9% and the “NAD(P) pmol/10^6 cells” value was 2.6 pmol/10^6 cells. The “NAD(P) pmol/mg protein” value was 1.6 pmol/mg protein.

For `NC(Cc1ccc(O)c(N=Nc2ccccc2C(=O)N2CCC(CCCCNC(=O)/C=C/c3cccnc3)CC2)c1)C(=O)O` (stereo not shown) [Compound K22408, 2-amino-3-[4-hydroxy-3-(2-{4-[4-(3-pyridine-3-yl-acryloyl-amino)-butyl]-piperidine-1-carbonyl}-phenylazo)-phenyl]-propanoic acid trihydrate], the inhibition at 10 µM was 98%, the activity at 10 µM was 1.6% and the “NAD(P) pmol/10^6 cells” value was 4.9 pmol/10^6 cells. For the same molecule, the “NAD(P) pmol/mg protein” value was 3.0 pmol/mg protein.

From patent US20020160968A1, “Inhibitors of cellular niacinamide mononucleotide formation and their use in cancer therapy” (Klinge Pharma GmbH, priority 1999, published 2002)
